# In US10064885B2, “Metabolic gene, enzyme, and flux targets for cancer therapy” (Massachusetts Institute of Technology, priority 2010, dated 2018):
# Assays:
# Type in all cases: cell-based, human
# A549 cells [1] = assay: 13C Metabolic Flux Analysis (MFA) of A549 cells expressing IDH1-targeting shRNAs, [U-13C5]glutamine tracer
# Experimental: (§1) Cell Culture, Isotopic Labeling, and Hypoxia. All cell lines were cultured in Dulbecco's Modified Eagle Medium (DMEM; Mediatech) containing 10% fetal bovine serum (FBS; Invitrogen) and 100 U/ml penicillin/streptomycin (P/S; Mediatech) unless otherwise mentioned. Cell lines were obtained from ATCC unless otherwise noted. The VC3 glioma cell line was provided by Tim Lautenschlaeger (Ohio State University), MDA-MB-231 and HCT116 cell lines were provided by Ferdinando Chiaradonna (University of Milano-Bicocca), MRC5 cells were provided by Stephen Lippard (MIT), SN12C, ACHN, and 786-O cells were provided by Kevin Courtney and Lew Cantley (Harvard Medical School), and MCF10A cells were provided by Joan Brugge (Harvard Medical School), and Huh7 cells were provided by Mike Hemann (MIT). MCF10A cells were cultured in custom DMEM/F12 (Hyclone) containing 5% horse serum, 20 ng/ml EGF, 10 μg/ml insulin, 100 ng/ml cholera toxin, 0.5 mg/ml hydrocortisone, 100 U/ml penicillin/streptomycin, and labeled/unlabeled glucose and glutamine at 18 mM and 2.5 mM, respectively. PRC3, WT8, pTV, and pTR cell lines were subcloned from the 786-O cell line as previously described (42, 43). For isotopic labeling experiments, cells were cultured in 6 well plates in glucose- and glutamine-free DMEM (Sigma) containing 10% dialyzed FBS (Invitrogen), 100 U/ml P/S, naturally labeled glucose or glutamine, and the appropriate tracer, including [U-^13C5]glutamine (Isotec), [5-^13C]glutamine (C/D/N Isotopes), [1-^13C]glutamine, [U-^13C6]glucose, [1,2-^13C2]glucose (all from Cambridge Isotope Labs). Steady state labeling of organic and amino acids was accomplished by culturing subconfluent cells in tracer medium for 24 hours. Labeling of fatty acids for Isotopomer Spectral Analysis (USA) was conducted over 3-5 days of culture in an excess of tracer medium (3-4 ml/well in a 6 well plate) to prevent nutrient depletion. Hypoxic culture was conducted by feeding a custom mixture of 1% O2, 5% CO2, and 94% N2 to a standard incubator controlled at 5% CO2. HEPES (Mediatech) was added to the culture medium at 20 mM to maintain pH between normoxic and hypoxic cultures. The internal gas content was monitored using Fyrite gas analyzers (Bacharach) for CO2 and O2. O2 levels were confirmed at 1.5-2% during hypoxic culture.
# Stable cell cultures with decreased IDH1 and IDH2 expression were generated via lentiviral-mediated shRNA expression. pLKO.1 lentiviral vectors targeting IDH1 with shRNA sequences of […] TT (IDH1a; TRCN0000027298; SEQ ID NO:1) and […] TT (IDH1b; TRCN0000027289; SEQ ID NO:2), IDH2 with shRNA sequence […] TT (TRCN0000027225; SEQ ID NO:3). For controls, either non-targeting control shRNA (SHC002; Sigma) or pLKO.1 scrambled control vector (44)(Addgene) were used. pLKO.1 vector targeting ARNT with shRNA sequence […] TT (TRCN0000003819; SEQ ID NO:4) was obtained from Open Biosystems.
# HEK293T cells were co-transfected with pLKO.1 vectors and packaging plasmids to produce lentivirus. Filtered supernatants were used for infection, and cells were selected with puromycin (2 μg/ml) for at least two passages before initiating tracer and flux experiments.
# Metabolite Extraction and Gas Chromatography/Mass Spectrometry (GC/MS) Analysis. At the conclusion of culture, cells were rinsed with 1 ml ice cold PBS and quenched with 0.4 ml ice cold methanol. An equal volume of water was added, and cells were collected in tubes by scraping with a pipette. One volume of ice cold chloroform was added to each tube, and the extracts were vortexed at 4° C. for 30 minutes. Samples were centrifuged at 14,000 g for 5 minutes at room temperature. For analysis of polar metabolites, the aqueous phase was transferred to a new tube for evaporation under airflow. For ISA experiments, the non-polar fraction was collected and evaporated under airflow. In some ISA experiments, cells were trypsinized, counted, and pelleted prior to lipid extraction as described above. […]
# A549 cells [2] = assay: Reductive glutamine metabolism by isotopic labeling and GC/MS in A549 cells expressing shRNAs; details: [U-13C5]glutamine, aspartate, malate, fumarate
# Experimental: as §1, with “Labeling of fatty acids for Isotopomer Spectral Analysis (USA) was conducted over 3-5 days of culture in an excess of tracer medium (3-4 ml/well in a 6 well plate) to prevent nutrient depletion. Hypoxic culture was conducted by feeding a custom mixture of 1% O2, 5% CO2, and 94% N2 to a standard incubator controlled at 5% CO2. HEPES (Mediatech) was added to the culture medium at 20 mM to maintain pH between normoxic and hypoxic cultures.” left out, “O2 levels were confirmed at 1.5-2% during hypoxic culture.” left out
# (§2) Metabolite Extraction and Gas Chromatography/Mass Spectrometry (GC/MS) Analysis. […] In some ISA experiments, cells were trypsinized, counted, and pelleted prior to lipid extraction as described above. […]
# HCT116 colon carcinoma = assay: Reductive carboxylation by [1-13C]glutamine labeling and GC/MS in HCT116 cells expressing shRNAs
# Experimental: as §1, with “Labeling of fatty acids for Isotopomer Spectral Analysis (USA) was conducted over 3-5 days of culture in an excess of tracer medium (3-4 ml/well in a 6 well plate) to prevent nutrient depletion. Hypoxic culture was conducted by feeding a custom mixture of 1% O2, 5% CO2, and 94% N2 to a standard incubator controlled at 5% CO2. HEPES (Mediatech) was added to the culture medium at 20 mM to maintain pH between normoxic and hypoxic cultures.” left out, “O2 levels were confirmed at 1.5-2% during hypoxic culture.” left out
# as §2
# [3] = tested on: MDA-MB-231 breast carcinoma; assay: Reductive carboxylation by [1-13C]glutamine labeling and GC/MS in MDA-MB-231 cells expressing shRNAs
# Experimental: as §1, with “Labeling of fatty acids for Isotopomer Spectral Analysis (USA) was conducted over 3-5 days of culture in an excess of tracer medium (3-4 ml/well in a 6 well plate) to prevent nutrient depletion. Hypoxic culture was conducted by feeding a custom mixture of 1% O2, 5% CO2, and 94% N2 to a standard incubator controlled at 5% CO2. HEPES (Mediatech) was added to the culture medium at 20 mM to maintain pH between normoxic and hypoxic cultures.” left out, “O2 levels were confirmed at 1.5-2% during hypoxic culture.” left out
# as §2
# 143B osteosarcoma = assay: Reductive carboxylation by [1-13C]glutamine labeling and GC/MS in 143B cells expressing shRNAs
# Experimental: Cell Culture, Isotopic Labeling, and Hypoxia. All cell lines were cultured in Dulbecco's Modified Eagle Medium (DMEM; Mediatech) containing 10% fetal bovine serum (FBS; Invitrogen) and 100 U/ml penicillin/streptomycin (P/S; Mediatech) unless otherwise mentioned. Cell lines were obtained from ATCC unless otherwise noted. The VC3 glioma cell line was provided by Tim Lautenschlaeger (Ohio State University), MDA-MB-231 and HCT116 cell lines were provided by Ferdinando Chiaradonna (University of Milano-Bicocca), MRC5 cells were provided by Stephen Lippard (MIT), SN12C, ACHN, and 786-O cells were provided by Kevin Courtney and Lew Cantley (Harvard Medical School), and MCF10A cells were provided by Joan Brugge (Harvard Medical School), and Huh7 cells were provided by Mike Hemann (MIT). MCF10A cells were cultured in custom DMEM/F12 (Hyclone) containing 5% horse serum, 20 ng/ml EGF, 10 μg/ml insulin, 100 ng/ml cholera toxin, 0.5 mg/ml hydrocortisone, 100 U/ml penicillin/streptomycin, and labeled/unlabeled glucose and glutamine at 18 mM and 2.5 mM, respectively. […] The internal gas content was monitored using Fyrite gas analyzers (Bacharach) for CO2 and O2. […]
# as §2
# [4] = tested on: Hypoxia response element- (HRE-) driven reporter; assay: Hypoxia response element (HRE)-driven reporter in HCT116 cells expressing IDH1-targeting shRNAs; details: normal culture, hypoxia, or 1 mM DMOG, 18 hours
# Experimental: Luciferase Assays. Subconfluent cells in 6 well plates were co-transfected with 1 μg of a firefly luciferase vector and 50 ng Renilla luciferase vector (pRL-TK; Promega) using Fugene 6 reagent. The ODD-Luciferase and Luciferase vectors were obtained from Addgene and based off of the pcDNA3.1 vector (49). Hypoxia responsive element-luciferase (HRE-Luc) vectors were used as described (50). Approximately 24 hours after transfection, medium was changed and cells were placed under normoxia, hypoxia, or treated with 1 mM dimethyloxalylglycine (DMOG). After 18 hours of treatment, cells were lysed and luciferase activity was determined using the Dual Luciferase Reporter Assay system (Promega) according to the manufacturer's instructions.
# [5] = Anaplerotic reactions, exchange flux
# [6] = Anaplerotic reactions, net flux
# [7] = Pentose Phosphate Pathway, exchange flux
# [8] = Pentose Phosphate Pathway, net flux
sequence,measurement,setting,value
"CCGGCGAATCATTTGGGAATTGATTCTCGAGAATCAATTCCCAAATGATTCGTTT TT (CCGGCGAATCATTTGGGAATTGATTCTCGAGAATCAATTCCCAAATGATTCGTTTTT; expressed or natural sequence) [IDH1b, pLKO.1 lentiviral vector shRNA targeting IDH1]",Flux Pyr.m <−> Ala,"A549 cells [1]; Amino acids, exchange flux",0.00 fmol/cell*hr
same,Flux Gln −> Glu,"A549 cells [1]; Amino acids, net flux",24.57 fmol/cell*hr
same,Flux Gln.x −> Gln,"A549 cells [1]; Amino acids, net flux",25.06 fmol/cell*hr
same,Flux Glu −> Glu.x,"A549 cells [1]; Amino acids, net flux",19.91 fmol/cell*hr
same,Flux Pyr.m −> Ala,"A549 cells [1]; Amino acids, net flux",0.42 fmol/cell*hr
same,Flux Glu <−> Akg,A549 cells [1]; [5],442.50 fmol/cell*hr
same,Flux Mal <−> Pyr.m + CO2,A549 cells [1]; [5],1.64 fmol/cell*hr
same,Flux Oac <−> Asp,A549 cells [1]; [5],372.30 fmol/cell*hr
same,Flux Glu −> Akg,A549 cells [1]; [6],4.16 fmol/cell*hr
same,Flux Mal −> Pyr.m + CO2,A549 cells [1]; [6],3.56 fmol/cell*hr
same,Flux Oac −> Asp,A549 cells [1]; [6],0.60 fmol/cell*hr
same,Flux Pyr.m + CO2 −> Oac,A549 cells [1]; [6],0.00 fmol/cell*hr
same,Flux 0.6*Asp + 0.5*Glu + 0.42*Ala + 0.5*Gln −> Biomass,"A549 cells [1]; Biomass, net flux",1.00 fmol/cell*hr
same,Flux AcCoA.c −> Fatty acids,"A549 cells [1]; Biomass, net flux",11.28 fmol/cell*hr
same,Flux Cit −> AcCoA.c + Oac,"A549 cells [1]; Biomass, net flux",11.28 fmol/cell*hr
same,Flux P5P −> NTP,"A549 cells [1]; Biomass, net flux",0.50 fmol/cell*hr
same,Flux 0*Pyr.c −> Pyr.mnt,A549 cells [1]; Dilution/Mixing,0.82 fmol/cell*hr
same,Flux 0*Pyr.m −> Pyr.mnt,A549 cells [1]; Dilution/Mixing,0.18 fmol/cell*hr
same,Flux 0*Suc −> Suc.mnt,A549 cells [1]; Dilution/Mixing,0.85 fmol/cell*hr
same,Flux Suc.d −> Suc.mnt,A549 cells [1]; Dilution/Mixing,0.15 fmol/cell*hr
same,Flux Pyr.c <−> Pyr.m,"A549 cells [1]; Dilution/Mixing, exchange flux",49.63 fmol/cell*hr
same,Flux Pyr.c −> Pyr.m,"A549 cells [1]; Dilution/Mixing, net flux",13.19 fmol/cell*hr
same,Flux DHAP <−> GAP,"A549 cells [1]; Glycolysis, exchange flux",550.40 fmol/cell*hr
same,Flux G6P <−> F6P,"A549 cells [1]; Glycolysis, exchange flux",0.00 fmol/cell*hr
same,Flux GAP <−> 3PG,"A549 cells [1]; Glycolysis, exchange flux",160.00 fmol/cell*hr
same,Flux Pyr.c <−> Lac,"A549 cells [1]; Glycolysis, exchange flux",695.70 fmol/cell*hr
same,Flux 3PG −> Pyr.c,"A549 cells [1]; Glycolysis, net flux",217.80 fmol/cell*hr
same,Flux DHAP −> GAP,"A549 cells [1]; Glycolysis, net flux",107.60 fmol/cell*hr
same,Flux F6P −> DHAP + GAP,"A549 cells [1]; Glycolysis, net flux",107.60 fmol/cell*hr
same,Flux G6P −> F6P,"A549 cells [1]; Glycolysis, net flux",102.60 fmol/cell*hr
same,Flux GAP −> 3PG,"A549 cells [1]; Glycolysis, net flux",217.80 fmol/cell*hr
same,Flux Glc.x −> G6P,"A549 cells [1]; Glycolysis, net flux",110.60 fmol/cell*hr
same,Flux Lac −> Lac.x,"A549 cells [1]; Glycolysis, net flux",204.60 fmol/cell*hr
same,Flux Pyr.c −> Lac,"A549 cells [1]; Glycolysis, net flux",204.60 fmol/cell*hr
same,Flux P5P + E4P <−> F6P + GAP,A549 cells [1]; [7],1.9E+06 fmol/cell*hr
same,Flux P5P + P5P <−> S7P + GAP,A549 cells [1]; [7],6.3E+07 fmol/cell*hr
same,Flux S7P + GAP <−> F6P + E4P,A549 cells [1]; [7],1.1E+06 fmol/cell*hr
same,Flux G6P −> P5P + CO2,A549 cells [1]; [8],8.01 fmol/cell*hr
same,Flux P5P + E4P −> F6P + GAP,A549 cells [1]; [8],2.50 fmol/cell*hr
same,Flux P5P + P5P −> S7P + GAP,A549 cells [1]; [8],2.50 fmol/cell*hr
same,Flux S7P + GAP −> F6P + E4P,A549 cells [1]; [8],2.50 fmol/cell*hr
same,Flux Fum <−> Mal,"A549 cells [1]; TCA Cycle, exchange flux",1.6E+07 fmol/cell*hr
same,Flux Mal <−> Oac,"A549 cells [1]; TCA Cycle, exchange flux",124.70 fmol/cell*hr
same,Flux Suc <−> Fum,"A549 cells [1]; TCA Cycle, exchange flux",0.29 fmol/cell*hr
same,Flux Cit <−> Akg + CO2,"A549 cells [1]; TCA Cycle, exchange flux (reductive IDH flux)",2.39 fmol/cell*hr
same,Flux AcCoA.m + Oac −> Cit,"A549 cells [1]; TCA Cycle, net flux",16.33 fmol/cell*hr
same,Flux Akg −> Suc + CO2,"A549 cells [1]; TCA Cycle, net flux",9.21 fmol/cell*hr
same,Flux Fum −> Mal,"A549 cells [1]; TCA Cycle, net flux",9.21 fmol/cell*hr
same,Flux Mal −> Oac,"A549 cells [1]; TCA Cycle, net flux",5.65 fmol/cell*hr
same,Flux Pyr.m −> AcCoA.m + CO2,"A549 cells [1]; TCA Cycle, net flux",16.33 fmol/cell*hr
same,Flux Suc −> Fum,"A549 cells [1]; TCA Cycle, net flux",9.21 fmol/cell*hr
same,Flux Cit −> Akg + CO2,"A549 cells [1]; TCA Cycle, net flux (IDH)",5.05 fmol/cell*hr
same,M3 mass isotopomers derived from [U-13C5]glutamine (reductive carboxylation),A549 cells [2],decrease in reductive carboxylation
same,reductive carboxylation flux (M1 label from [1-13C]glutamine),HCT116 colon carcinoma,reduces reductive carboxylation flux
same,reductive carboxylation flux (M1 label from [1-13C]glutamine),[3],reduces reductive carboxylation flux
same,reductive carboxylation flux,143B osteosarcoma,reduces reductive carboxylation flux
same,HRE-driven reporter levels (hypoxia signaling),[4],does not increase hypoxia signaling and stabilization
